Experimental data: US20250034551A1, “METHODS AND SYSTEMS FOR HIGH-THROUGHPUT BIOCHEMICAL SCREENS” (THINK BIOSCIENCE, INC., priority 2021, published 2025)
“Also recorded” adds a separate entry of the source. Where two headings read alike, the source gives them in different places.

Legend:
[1] = biological target: kinase substrate domain (MidT) fused to the omega subunit of RNA polymerase (RpoZ), no protease recognition site in the linker (UniProt P0A800)
[2] = biological target: T1, PTP1B (Homo sapiens, UniProt P18031); test: PTP1B-catalyzed hydrolysis of p-nitrophenyl phosphate (pNPP), in vitro kinetic assay; format: biochemical; conditions: for Ki: PTP1B1-321; for inhibition of PTP1B activity on pNPP relative to himachalol: 50 nM PTP1B, 5 mM pNPP, 2% or 10% DMSO
T1 sequence (P18031 1-321): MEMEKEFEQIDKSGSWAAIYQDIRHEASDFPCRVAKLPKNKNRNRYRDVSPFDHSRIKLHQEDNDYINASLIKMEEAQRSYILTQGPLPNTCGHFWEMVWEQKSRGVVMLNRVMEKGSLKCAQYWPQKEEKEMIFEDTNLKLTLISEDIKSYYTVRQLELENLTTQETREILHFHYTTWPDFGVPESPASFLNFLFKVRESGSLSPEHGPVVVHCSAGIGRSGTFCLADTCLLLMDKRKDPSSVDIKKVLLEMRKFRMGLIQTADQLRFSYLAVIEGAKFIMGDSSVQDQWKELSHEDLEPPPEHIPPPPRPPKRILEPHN
Protocol: PTP1B was purified as described previously. Briefly, the E. coli BL21 (DE3) cells were transformed with a pET21b vector containing the catalytic domain of PTP1B (residues 1-321) modified with a 6× polyhistidine tag on its C-terminus. The cells were grown in 1-L cultures to an OD600 of 0.3-0.6 (37° C., 225 RPM), induced with 500 μM IPTG, and grown at 22° C. for 20 hours. The cells were lysed with B-PERII, and purified PTP1B by using desalting, nickel affinity, and anion exchange chromatography (HiPrep 26/10, HisTrap HP, and HiPrep Q HP, respectively; GE Healthcare). The final protein was stored (50 μM) in HEPES buffer (50 mM, pH 7.5, 0.5 mM TCEP) in 20% glycerol at −80° C.
(§1) Inhibition was examined by FPP by measuring its influence on PTP1B-catalyzed hydrolysis of p-nitrophenylphosphate (pNPP). Briefly, 100-μL reactions were prepared comprising 50 nM PTP1B, 0.167-20 mM pNPP, and 75-150 μM terpenoids in 50 mM HEPES (pH=7.3) with 50 mM TCEP, 50 μg/mL BSA, and 2-10% DMSO. The reactions were initiated by adding pNPP, and the production of p-nitrophenol (pNP) was monitored by measuring absorbance at 405 nm every 10 s for 5 min (SpectraMax iD3 plate reader). When necessary, the solubility of the terpenoids in individual wells were assessed by plotting the A405 values for each well—including a no-inhibitor well—in a single read.
Kinetic data was analyzed by using a custom Matlab script supplemented with a user-generated standard curve (e.g., a plot of absorbance at 405 nm vs. pNP concentration in μM, FIG. 15). This script removes datapoints outside of (i) the linear range of the standard curve and/or (ii) the initial rate regime, and it excludes datasets that contain fewer than 10 datapoints after these processing steps. The all datasets were fit using linear regression with Matlab's backslash operator. To determine the half maximal inhibitory concentration (IC50) of himachalol, kinetic models were evaluated by fitting them to standard models of inhibition (e.g., […], noncompetitive, […], and mixed inhibition). Briefly, the procedure included: (i) fitting an initial-rate measurements of pNPP hydrolysis with and without inhibitors, (ii) using the Akaike's Information Criterion (AIC) to compare the best-fit single parameter model to each alternative single-parameter model and accepting the “best-fit” model when the difference in AIC (Δi) exceeded 5 for all comparisons (when this criterion was not met, it was deemed that two or more single-parameter models may be indistinguishable), and (iii) using an F-test to compare a mixed inhibition model to the best-fit single-parameter model and accepting the mixed model if p<0.05. […] The MATLAB function “nlparci” was used to determine the confidence intervals of kinetic parameters, and those intervals were propagated to estimate confidence intervals for each IC50.
Inhibition by FPP, a costly reagent, was examined with three modifications of the above assay: (i) pNPP concentration was held constant (5 mM). (ii) The 10% DMSO was replaced with 10% of a mixture of methanol: 10 mM NH4OH (7:3). (FPP was purchased as a 1.1 mg/mL solution in methanol: 10 mM NH4OH (7:3)). (ii) IC50 was estimated by using a linear fit to the initial rate data; 95% confidence intervals were propagated on the regression parameters generated using Matlab's “coefCI function”. This approach, which reflects the limited number of measurements afforded by the FPP stock (measurements which include very high and very low initial rates), may result in a greater error than a more standard approach for estimating IC50 (e.g., 4-parameter logistic curves) but nonetheless provides an order of magnitude estimate of potency.

[3] = biological target: T1, PTP1B; test: fluorescence-based binding isotherms for BBR; design: binding of BBR to PTP1B in the presence of amorphadiene: dose or concentration left out as unconfirmed; conditions: for ΔFmax of BBR binding isotherm: ±SE
Description: (§2) Error bars denote standard error for n=3 technical replicates. […] Error bars denote standard deviation for n=3 technical replicates.

[4] = biological target: T1, PTP1B; test: melting temperatures determined with differential scanning fluorimetry; format: binding; conditions: n=3
Description: as §2

[5] = biological target: 3CLpro (Severe acute respiratory syndrome coronavirus 2, UniProt P0DTD1); test: 3CLpro-mediated hydrolysis of FRET peptide Mca-[…](Dnp)K; format: biochemical, SARS-COV-2
Description: Förster resonance energy transfer (FRET) peptides provide a facile means of assaying protease inhibitors. These peptides contain a fluorophore and a quencher separated by a protease recognition domain; peptide cleavage separates the fluorophore and quencher and increases fluorescence.
For 3CLpro, a commercially available substrate was used: Mca-[…](Dnp)K (SEQ ID NO: 1), where Mca ((methoxycoumarin-4-yl) acetyl) was the fluorophore and 2,4-dinitrophenyl (Dnp) was the quencher. Using this assay, inhibition by eucalyptol and α-bisabolol (FIGS. 30B-30C, FIG. 56) was examined.

[6] = biological target: SARS-COV-2 3CLpro (Severe acute respiratory syndrome coronavirus 2, UniProt P0DTD1); test: 3CLpro-catalyzed proteolysis of fluorogenic peptide substrate TSAVLQ_AFC; format: biochemical; conditions: mean and standard error
[7] = solubility of terpenoids in kinetic assay wells (A405); format: physicochemical
Protocol: as §1

[8] = biological target: RpoZ-MidT fusion with AAAA_Ubiquitin_AAAA added to the linker (UniProt P0A800)
Sequence of RpoZ-MidT fusion with AAAA_Ubiquitin_AAAA added to the linker (P0A800 whole entry, looked up, the tested form may be a part): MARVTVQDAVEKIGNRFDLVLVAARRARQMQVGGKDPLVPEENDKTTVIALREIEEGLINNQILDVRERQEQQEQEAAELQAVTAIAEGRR

[9] = biological target: RpoZ-MidT fusion with the 3CLpro recognition sequence in the linker (number of flanking alanines not stated) (UniProt P0A800)
Sequence of RpoZ-MidT fusion with the 3CLpro recognition sequence in the linker (number of flanking alanines not stated) (P0A800 whole entry, looked up, the tested form may be a part): as above

[10] = biological target: RpoZ-MidT fusion with the HIV-1 protease recognition sequence in the linker (number of flanking alanines not stated) (UniProt P0A800)
Sequence of RpoZ-MidT fusion with the HIV-1 protease recognition sequence in the linker (number of flanking alanines not stated) (P0A800 whole entry, looked up, the tested form may be a part): as above

[11] = biological target: RpoZ-MidT fusion with the PLpro recognition site LRGG in the linker (UniProt P0A800)
Sequence of RpoZ-MidT fusion with the PLpro recognition site LRGG in the linker (P0A800 whole entry, looked up, the tested form may be a part): as above

[12] = biological target: RpoZ-MidT fusion with the DENVpro/WNVpro recognition site in the linker (UniProt P0A800)
Sequence of RpoZ-MidT fusion with the DENVpro/WNVpro recognition site in the linker (P0A800 whole entry, looked up, the tested form may be a part): as above

[13] = biological target: RpoZ-MidT fusion with the 3CLpro recognition sequence in the linker (number of flanking alanines not stated), P0A800
Sequence of RpoZ-MidT fusion with the 3CLpro recognition sequence in the linker (number of flanking alanines not stated), P0A800 (P0A800 whole entry, looked up, the tested form may be a part): as above

[14] = biological target: RpoZ-MidT fusion with the HIV-1 protease recognition sequence in the linker (number of flanking alanines not stated), P0A800
Sequence of RpoZ-MidT fusion with the HIV-1 protease recognition sequence in the linker (number of flanking alanines not stated), P0A800 (P0A800 whole entry, looked up, the tested form may be a part): as above

Sequence of kinase substrate domain (MidT) fused to the omega subunit of RNA polymerase (RpoZ), no protease recognition site in the linker (P0A800 whole entry, looked up, the tested form may be a part): as above

3-chymotrypsin-like protease (3CLpro) of SARS-CoV-2
dynamic range (DR, the change in luminescence caused by protease expression) [1]: 10.7±1.2 vs. 6.3±0.9

CC(C)=CCC/C(C)=C/CC/C(C)=C/CO[P@@](=O)(O)OP(=O)(O)O (stereo in doubt) [FPP, farnesyl pyrophosphate]
IC50 ([2]; [PTP1B]=50 nM, [pNPP]=5 mM, linear fit, rough estimate, read-out: IC50 for PTP1B): ~200 µM

CC1=C[C@@H]2C(=C(C)CC[C@H]2C(C)C)CC1 [(+)-8-cadinene]
IC50 ([2]; major product of terpene synthase A0A0C9VSL7, error 95 CI, read-out: IC50 (PTP1B), estimated): 165 µM

CCc1oc2cc(S(=O)(=O)Nc3ccc(S(=O)(=O)Nc4nccs4)cc3)ccc2c1C(=O)c1cc(Br)c(O)c(Br)c1 [BBR, 3-(3,5-dibromo-4-hydroxybenzoyl)-2-ethyl-N-[4-[(2-thiazolylamino)sulfonyl]phenyl]-6-benzofuransulfonamide]
ΔFmax of BBR binding isotherm ([3]; BBR alone): 227000±13000
ΔFmax of BBR binding isotherm ([3]; BBR with AD): 195000±12000
ΔFmax of BBR binding isotherm ([3]; BBR with TCS401): 94000±2000
binding of BBR to PTP1B in the presence of amorphadiene ([3]; presence of amorphadiene): not significantly disrupted
effect on melting temperature (stability) of PTP1B [4]: destabilize PTP1B

Cc1cc(-c2c3ccccc3c(Br)c3sc(C)c(C)c23)cc(C)c1O[C@H](Cc1ccccc1)C(=O)O [Ertiprotafib]
effect on melting temperature (stability) of PTP1B [4]: destabilize PTP1B

O=C(O)C(=O)Nc1sc2c(c1C(=O)O)CCNC2 [TCS401]
effect on melting temperature (stability) of PTP1B [4]: do not

C=C(C)[C@@H]1CC[C@@H](C)[C@@H]2CCC(C)=C[C@@H]21 [amorphadiene]
selectivity PTP1B versus TCPTP [2]: more potent inhibitor of PTP1B than TCPTP
effect on melting temperature (stability) of PTP1B [4]: do not

CC12CCC(CC1)C(C)(C)O2 [eucalyptol]
inhibitory effect on 3CLpro ([5]; FRET peptide, FIG. 56): no inhibitory effect; also recorded: not an inhibitor

CC1=C[C@H]2[C@@H](CC1)[C@](C)(O)CCCC2(C)C [himachalol]
Ki ([2]; fit of competitive model, read-out: Ki, competitive model): 24.4 µM
Ki ([2]; fit of mixed model, read-out: Ki,c, mixed model): 161 µM
Ki ([2]; fit of mixed model, read-out: Ki,u, mixed model): 305 µM
Ki ([2]; fit of noncompetitive model, marked *, read-out: Ki, noncompetitive model (best fit)): 280 µM
Ki ([2]; fit of uncompetitive model, read-out: Ki, uncompetitive model): 253 µM
IC50 ([2]; PTP1B-catalyzed hydrolysis of pNPP, estimated from best-fit kinetic model at 20 mM pNPP, read-out: IC50 for PTP1B): 280 ± 59 µM

CC(C)=CCC=C(C)C1CC=C(C)CC1 (stereo not drawn) [α-bisabolene]
IC50 [6]: 186 ± 12 µM

CC1=C[C@H]2C(=C(C)CCCC2(C)C)CC1 [β-himachalene]
inhibition of PTP1B activity on pNPP relative to himachalol [2]: less inhibitory
solubility in kinetic assay [7]: low solubilities

C=C1C=CC(C)(C)CCCC(C)=CCC1 [γ-humulene]
inhibition of PTP1B activity on pNPP relative to himachalol [2]: less inhibitory
solubility in kinetic assay ([7]; precluded IC50 estimates): low solubilities

HIV-1 protease
LuxAB luminescence response to protease overexpression [8]: HIVpro appeared functional with all sites, which was behavior consistent with its reported promiscuity
LuxAB luminescence response to protease overexpression [9]: HIVpro appeared functional with all sites, which was behavior consistent with its reported promiscuity
LuxAB luminescence response to protease overexpression [10]: HIVpro appeared functional with all sites, which was behavior consistent with its reported promiscuity
LuxAB luminescence response to protease overexpression [11]: HIVpro appeared functional with all sites, which was behavior consistent with its reported promiscuity

Non-structural protein 2B-3 protease complex from Dengue virus 2 (DENV2 NS2B-NS3)
LuxAB luminescence screen of proteases against recognition sites [12]: WNVpro and DNVpro showed no activity in initial screens

Non-structural protein 2B-3 protease complex from West Nile Virus (WNV NS2B-NS3)
LuxAB luminescence screen of proteases against recognition sites [12]: WNVpro and DNVpro showed no activity in initial screens

α-bisabolol
IC50 ([5]; FRET / fluorogenic peptide, mixture containing α-bisabolol, read-out: IC50 for 3CLpro): 3.33 µM
IC50 ([5]; fit to percent inhibition, FIG. 30C, read-out: half-maximal inhibitory concentration (IC50) for 3CLpro): ~3 µM
IC50 [6]: 30 to 80 µM

B1: protein tyrosine phosphatase 1B (PTP1B), catalytic domain 1-321 (protein)
chain: T1 sequence (P18031 1-321)
dynamic range of LuxAB luminescence between active and inactive PTP1B [13]: retained the desired B2H activity (e.g., PTP1B inactivation increased luminescence) at a 4- to 5-fold dynamic range
dynamic range of LuxAB luminescence between active and inactive PTP1B [14]: retained the desired B2H activity (e.g., PTP1B inactivation increased luminescence) at a 4- to 5-fold dynamic range
